Laboratory results from the supplement of paper PMC11150407.

Tests used:
Test in all cases: cell viability relative to vehicle (fraction); higher = less inhibition
Details in all cases: 72 h
PR#002 = test system: PR#002
Experimental: (§1)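 Primary 3q26 AML patient cells were treated for 72 h with AR-42, belinostat or entinostat (0.01-2 uM, 2-fold dilutions), in duplicate. Viability was measured by ATP-based luminescence and normalised to vehicle, given as a fraction.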

PR#0024 = test system: PR#0024
Experimental: as §1

PR#0023 = test system: PR#0023
Experimental: as §1

PR#003 = test system: PR#003
Experimental: as §1

PR#005 = test system: PR#005
Experimental: as §1

PR#004 = test system: PR#004
Experimental: as §1

PR#006 = test system: PR#006
Experimental: as §1

PR#008 = test system: PR#008
Experimental: as §1

PR#007 = test system: PR#007
Experimental: as §1

CC(C)[C@H](C(=O)Nc1ccc(C(=O)NO)cc1)c1ccccc1 [AR-42]
cell viability
Details | PR#002 | PR#003 | PR#004 | PR#005 | PR#006 | PR#007 | PR#008 | PR#0023 | PR#0024
0.016 µM | 1 | 1.01 | 0.809 | 0.962 | 0.936 | 0.988 | 0.553 | 0.955 | 0.953
0.031 µM | 0.938 | 0.853 | 0.646 | 0.977 | 0.904 | 1.0115 | 0.434 | 0.984 | 0.81
0.0625 µM | 0.855 | 0.797 | 0.417 | 0.833 | 0.902 | 1.01 | 0.3 | 0.675 | 0.67
0.125 µM | 0.792 | 0.503 | 0.248 | 0.991 | 0.552 | 0.872 | 0.199 | 0.785 | 0.4575
0.25 µM | 0.508 | 0.247 | 0.132 | 0.928 | 0.367 | 0.748 | 0.0865 | 0.441 | 0.259
0.5 µM | 0.124 | 0.0952 | 0.0759 | 0.239 | 0.104 | 0.443 | 0.0168 | 0.4779 | 0.127
1 µM | 0.0233 | 0.0399 | 0.0688 | 0.0777 | 0.0486 | 0.155 | 0.0142 | 0.116 | 0.0553
2 µM | 0.01971 | 0.0313 | 0.0591 | 0.0322 | 0.0395 | 0.0706 | 0.016 | 0.0583 | 0.0347

O=C(/C=C/c1cccc(S(=O)(=O)Nc2ccccc2)c1)NO [Belinostat]
cell viability
Details | PR#002 | PR#003 | PR#004 | PR#005 | PR#006 | PR#007 | PR#008 | PR#0023 | PR#0024
0.016 µM | 1.22 | 1.12 | 0.978 | 0.798 | 1.048 | 0.981 | 0.643 | 0.933 | 0.97
0.031 µM | 1.08 | 1.12 | 0.967 | 0.698 | 0.987 | 0.961 | 0.642 | 0.917 | 0.882
0.0625 µM | 1.01 | 0.9713 | 0.7834 | 0.979 | 0.941 | 0.897 | 0.468 | 0.893 | 0.77
0.125 µM | 1.01 | 0.874 | 0.577 | 0.871 | 0.729 | 0.854 | 0.391 | 0.8339 | 0.609
0.25 µM | 0.902 | 0.562 | 0.326 | 0.524 | 0.481 | 0.717 | 0.247 | 0.777 | 0.363
0.5 µM | 0.492 | 0.3 | 0.125 | 0.404 | 0.177 | 0.4339 | 0.0828 | 0.611 | 0.184
1 µM | 0.114 | 0.0978 | 0.0685 | 0.108 | 0.0585 | 0.173 | 0.0197 | 0.325 | 0.0781
2 µM | 0.0243 | 0.0452 | 0.0602 | 0.0361 | 0.035 | 0.0759 | 0.0115 | 0.0655 | 0.0477

Nc1ccccc1NC(=O)c1ccc(CNC(=O)OCc2cccnc2)cc1 [Entinostat]
cell viability
Details | PR#002 | PR#003 | PR#004 | PR#005 | PR#006 | PR#007 | PR#008 | PR#0023 | PR#0024
0.016 µM | 1.02 | 0.949 | 0.78 | 1.04 | 0.961 | 0.934 | 0.764 | 0.932 | 1.08
0.031 µM | 0.94 | 1 | 0.673 | 0.625 | 0.813 | 0.903 | 0.691 | 0.923 | 1.02
0.0625 µM | 0.869 | 0.91 | 0.472 | 0.534 | 0.731 | 0.938 | 0.49 | 0.806 | 0.924
0.125 µM | 0.736 | 0.735 | 0.298 | 0.437 | 0.555 | 0.918 | 0.303 | 0.7626 | 0.827
0.25 µM | 0.593 | 0.536 | 0.183 | 0.475 | 0.434 | 0.778 | 0.186 | 0.6886 | 0.682
0.5 µM | 0.396 | 0.281 | 0.1099 | 0.203 | 0.2018 | 0.666 | 0.0771 | 0.589 | 0.516
1 µM | 0.0907 | 0.115 | 0.0717 | 0.06904 | 0.115 | 0.345 | 0.0229 | 0.423 | 0.285
2 µM | 0.0309 | 0.0591 | 0.0662 | 0.0415 | 0.065 | 0.168 | 0.00956 | 0.183 | 0.14
